These results are taken from ChEMBL document CHEMBL1201862, “PubChem BioAssay data set” (2004).

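Compound exposure: 48 hours, 5 concentrations, 96-well plates. GI50 is the concentration that inhibits growth by half.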 Calls of active or inactive are those of the source. Cut-off read from the data, not from the text of the source: active = GI50 up to about 1.1 µM and inactive = higher. Some results are limits rather than exact numbers.

Among the test systems are RXF 393; HCT-15; HCC 2998; OVCAR-4; 786-0; SF-295; UACC-257; TK-10; NCI-H522; SR; SK-MEL-2; NCI/ADR-RES; SN12C; U-251; KM12; SF-539; OVCAR-5; CAKI-1; EKVX; SK-OV-3.
What all share (experiment): NCI-60 cell line screen, 48 h

For the compound `CS(=O)(=O)Nc1ccc2c(c1)N(S(C)(=O)=O)CC2CCl` (centres undefined), the GI50 in the test with RXF 393 was > 100 µM (inactive); in the test with HCT-15, above 100 µM; in the test with HCC 2998, > 100 µM (inactive); in the test with OVCAR-4 it was > 100 µM (inactive); in the test with 786-0, > 100 µM (inactive); with SF-295, > 100 µM (inactive). Moreover, the GI50 with UACC-257, in the test on TK-10, in the test with NCI-H522, in the test on SR, with SK-MEL-2 and with NCI/ADR-RES was > 100 µM (inactive) throughout. For the same compound, the GI50 in the test on SN12C, in the test on U-251, with KM12, in the test with SF-539, in the test with OVCAR-5 and with CAKI-1 was > 100 µM (inactive) throughout. In the test with EKVX, the GI50 was > 100 µM (inactive).

`O=C(O)c1nc2ccc(C(F)(F)F)cc2nc1Nc1ccc(Cl)c(Cl)c1`: the GI50 with RXF 393 is 13.4 µM (inactive); with HCT-15 it was 8.97 µM; in the test with HCC 2998, 4.99 µM (inactive); in the test on OVCAR-4 it was 6.98 µM (inactive); in the test on 786-0, 10.5 µM (inactive); in the test on SF-295, 4.36 µM (inactive). Moreover, the GI50 with UACC-257 was 29.2 µM (inactive); in the test on TK-10, 20 µM (inactive); in the test on NCI-H522, 2.95 µM (inactive); in the test with SR, 4.15 µM (inactive); in the test on SK-MEL-2, 2.31 µM (inactive); with NCI/ADR-RES, 5.96 µM (inactive). For the same compound, the GI50 in the test with SN12C is 7.67 µM (inactive); in the test on U-251 it was 3.93 µM (inactive); with KM12 it was 6.98 µM (inactive); in the test with OVCAR-5, 14.4 µM (inactive); in the test on CAKI-1, 15.5 µM (inactive); with EKVX, 7.26 µM (inactive).

For the compound `Nc1nccc(NCC2(CO)CC(OCc3ccccc3)C2)n1` (centres undefined), the GI50 with RXF 393 was > 100 µM (inactive); with HCT-15, above 100 µM; in the test with HCC 2998, > 100 µM (inactive); with OVCAR-4 it was 48.3 µM (inactive); with 786-0, > 100 µM (inactive); in the test with SF-295, > 100 µM (inactive). The GI50 with UACC-257 was > 100 µM (inactive); with NCI-H522, 98.9 µM (inactive); in the test with SR, > 100 µM (inactive); in the test on SK-MEL-2 it was > 100 µM (inactive); in the test on NCI/ADR-RES, > 100 µM (inactive); in the test with SN12C it was > 100 µM (inactive). Moreover, the GI50 in the test on U-251 was > 100 µM (inactive); with KM12, > 100 µM (inactive); in the test on SF-539, > 100 µM (inactive); in the test on OVCAR-5, > 100 µM (inactive); in the test with CAKI-1, > 100 µM (inactive); in the test with EKVX, 77.4 µM (inactive).

As for `O=c1oc2ccccc2c(-c2ccc(O)cc2)c1Oc1ccc(Cl)cc1`, the GI50 was 19.4 µM (inactive) with RXF 393; 30.1 µM with HCT-15; 16.9 µM (inactive) in the test with HCC 2998; 38.4 µM (inactive) in the test with OVCAR-4; 26.9 µM (inactive) in the test on 786-0; 17 µM (inactive) in the test on SF-295. The GI50 is 28.2 µM (inactive) in the test with UACC-257; 20.7 µM (inactive) in the test with TK-10; 16.9 µM (inactive) with NCI-H522; 18.2 µM (inactive) in the test on SR; 17.9 µM (inactive) with SK-MEL-2; 24.5 µM (inactive) with NCI/ADR-RES. Moreover, the GI50 is 24 µM (inactive) in the test on SN12C; 22.3 µM (inactive) with U-251; 26.5 µM (inactive) in the test with KM12; 30.4 µM (inactive) with SF-539; 31.8 µM (inactive) in the test on OVCAR-5; 28.8 µM (inactive) with CAKI-1. Besides, the GI50 in the test on EKVX is 16.8 µM (inactive).

`CCOC(=O)Nn1c(C)nnc1CC#N`: the GI50 with RXF 393 is > 100 µM (inactive); with HCT-15, above 100 µM; in the test on HCC 2998 it was > 100 µM (inactive); with 786-0, > 100 µM (inactive); in the test with SF-295 it was > 100 µM (inactive); in the test with UACC-257, > 100 µM (inactive). Also, the GI50 with TK-10, with NCI-H522, in the test on SR, in the test with SK-MEL-2, in the test on NCI/ADR-RES and with SN12C was > 100 µM (inactive) in each case. Moreover, the GI50 in the test on U-251, in the test with KM12, in the test on SF-539, with OVCAR-5 and in the test with CAKI-1 was > 100 µM (inactive) each time.

As to `CNC(=S)/C(C#N)=C(\N)N1CCN(C)CC1`, the GI50 in the test on RXF 393 was > 100 µM (inactive); in the test on HCT-15, above 100 µM; in the test with HCC 2998 it was > 100 µM (inactive); in the test with 786-0 it was > 100 µM (inactive); with SK-OV-3, > 100 µM (inactive); in the test on SF-295, > 100 µM (inactive). The GI50 with UACC-257, in the test with TK-10, with NCI-H522, in the test on SR, in the test on SK-MEL-2 and with NCI/ADR-RES was > 100 µM (inactive) throughout. Further, the GI50 in the test on SN12C, with U-251, in the test on KM12, in the test with SF-539, with OVCAR-5 and in the test on CAKI-1 was > 100 µM (inactive) each time. For the same compound, the GI50 in the test on EKVX was > 100 µM (inactive).

With `O=c1ccn([C@@H]2C[C@H]2CO)c(=O)[nH]1`, the GI50 is > 100 µM (inactive) in the test with RXF 393; above 100 µM in the test on HCT-15; > 100 µM (inactive) in the test with HCC 2998; > 100 µM (inactive) in the test on OVCAR-4; > 100 µM (inactive) in the test with 786-0; > 100 µM (inactive) with UACC-257. The GI50 with TK-10, in the test with NCI-H522, with SR, with SK-MEL-2, in the test with NCI/ADR-RES and in the test with SN12C was > 100 µM (inactive) each time. For the same compound, the GI50 in the test with U-251, in the test on KM12, in the test on SF-539, in the test on OVCAR-5, in the test with CAKI-1 and in the test with EKVX was > 100 µM (inactive) in each case.

On to `O=Cc1ccc(OCc2cccc(COc3ccc(/C=N\Nc4ccc([N+](=O)[O-])cc4[N+](=O)[O-])cc3)n2)cc1`, for which the GI50 with RXF 393 was 43.2 µM (inactive); in the test on HCT-15 it was above 100 µM; with HCC 2998 it was > 100 µM (inactive); with OVCAR-4, > 100 µM (inactive); in the test on 786-0, > 100 µM (inactive); with SF-295, > 100 µM (inactive). Besides, the GI50 in the test on UACC-257 is > 100 µM (inactive); in the test with TK-10, > 100 µM (inactive); with NCI-H522 it was > 100 µM (inactive); in the test on SR, 22.1 µM (inactive); with SK-MEL-2 it was 89.5 µM (inactive); in the test on NCI/ADR-RES it was > 100 µM (inactive). Further, the GI50 in the test on SN12C is > 100 µM (inactive); in the test on U-251 it was 63.5 µM (inactive); in the test with KM12, > 100 µM (inactive); in the test on OVCAR-5 it was > 100 µM (inactive); in the test with CAKI-1, > 100 µM (inactive); in the test on EKVX, > 100 µM (inactive).

As for `C[C@H]1CCCCC[C@@H]2CC(=O)CC2C(=O)CCC(=O)O1` (some centres undefined), the GI50 in the test on RXF 393 was > 100 µM (inactive); in the test with HCT-15, above 100 µM; in the test with HCC 2998, > 100 µM (inactive); with OVCAR-4, > 100 µM (inactive); with 786-0, > 100 µM (inactive); in the test on SF-295 it was > 100 µM (inactive). For the same compound, the GI50 in the test with UACC-257 was > 100 µM (inactive); with TK-10, > 100 µM (inactive); in the test with NCI-H522, > 100 µM (inactive); with SR, > 100 µM (inactive); in the test on NCI/ADR-RES, 52.6 µM (inactive); with SN12C, > 100 µM (inactive). Moreover, the GI50 with U-251, in the test with KM12, in the test on SF-539, with OVCAR-5 and with EKVX was > 100 µM (inactive) throughout.

Consider `COc1cc2oc(-c3ccc(O)cc3)cc(=O)c2c(OC)c1OC`, for which the GI50 is > 100 µM (inactive) in the test with RXF 393; above 100 µM in the test on HCT-15; > 100 µM (inactive) in the test with HCC 2998; > 100 µM (inactive) with OVCAR-4; > 100 µM (inactive) with 786-0; > 100 µM (inactive) with SF-295. Besides, the GI50 in the test with UACC-257, in the test with TK-10, in the test with NCI-H522, in the test with SR, in the test on NCI/ADR-RES and with SN12C was > 100 µM (inactive) in each case. The GI50 with U-251, with KM12, in the test with SF-539, with OVCAR-5, in the test with CAKI-1 and in the test with EKVX was > 100 µM (inactive) each time.

For `COc1c2ccoc2cc2oc(=O)ccc12` [BERGAPTEN], the GI50 in the test with RXF 393 is > 100 µM (inactive); in the test with HCT-15, above 100 µM; in the test on HCC 2998, > 100 µM (inactive); with OVCAR-4, > 100 µM (inactive); in the test on 786-0, > 100 µM (inactive); with SF-295 it was > 100 µM (inactive). Also, the GI50 in the test on UACC-257, in the test on TK-10, with NCI-H522, in the test on SR, in the test on SK-MEL-2 and with NCI/ADR-RES was > 100 µM (inactive) throughout. Moreover, the GI50 is > 100 µM (inactive) with SN12C; 67.9 µM (inactive) with U-251; > 100 µM (inactive) in the test on SF-539; > 100 µM (inactive) with OVCAR-5; > 100 µM (inactive) in the test on CAKI-1; 18.7 µM (inactive) with EKVX.
